Results on four compounds are retold here after EP4810052A2, “HCRHR2 SELECTIVE POLYPEPTIDES” (Gubra A/S, priority 2023, dated 2026).

Read-outs that look alike come from different tables or passages of the source. Starred links: 1 amine or outer side, 2 acyl side, 3 side chain; linkers in the order of their positions; H or OH if unused. Non-standard residues stand in square brackets, D forms with d. Residues, ends and D or L forms follow the SMILES beside them. Groups on a side chain read outwards from the residue. *: point of attachment. C20 diacid = O=C(O)CCCCCCCCCCCCCCCCCCC(=O)*; γGlu = O=C(O)[C@H](CCC(=O)[*:2])N[*:1]; Hyp = O=C(O)[C@@H]1C[C@@H](O)CN1; NMeI = CC[C@H](C)[C@H](NC)C(=O)O; Nle = CCCC[C@H](N)C(=O)O; AEEA = NCCOCCOCC(=O)O; Aib = CC(C)(N)C(=O)O Some results are limits rather than exact numbers.

One assay deals with T1, hCRHR2 (Homo sapiens, UniProt Q13324).
T1 sequence (Q13324 1-411): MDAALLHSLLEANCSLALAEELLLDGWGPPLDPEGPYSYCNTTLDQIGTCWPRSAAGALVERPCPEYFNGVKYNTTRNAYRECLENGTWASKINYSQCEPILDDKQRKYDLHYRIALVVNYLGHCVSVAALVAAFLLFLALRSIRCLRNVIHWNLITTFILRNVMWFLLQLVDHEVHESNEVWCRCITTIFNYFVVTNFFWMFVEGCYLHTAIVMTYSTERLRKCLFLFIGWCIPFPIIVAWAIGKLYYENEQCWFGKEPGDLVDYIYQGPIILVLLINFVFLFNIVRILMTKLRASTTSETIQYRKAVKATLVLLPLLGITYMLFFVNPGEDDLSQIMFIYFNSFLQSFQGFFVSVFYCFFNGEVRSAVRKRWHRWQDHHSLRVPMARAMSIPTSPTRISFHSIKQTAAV
Kind of assay: HTRF cAMP assay, determination of hCRHR2 potency (peptide libraries 5 conc., purified peptides 11 conc.). The format is cell-based. The method in brief: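 EC50 derived by variable-slope sigmoid regression of FRET-based cAMP data; cellular cAMP displaced d2-labelled tracer from cryptate anti-cAMP antibody. Stable human CRHR2 CHO-K1 suspension cells, revived from frozen stocks just before the run.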
On the technique in general: TR-FRET usually uses a lanthanide donor and a delayed reading to cut background.

Another assay concerns the target T2, hCRHR1 (Homo sapiens, UniProt P34998).
T2 sequence (P34998 24-415): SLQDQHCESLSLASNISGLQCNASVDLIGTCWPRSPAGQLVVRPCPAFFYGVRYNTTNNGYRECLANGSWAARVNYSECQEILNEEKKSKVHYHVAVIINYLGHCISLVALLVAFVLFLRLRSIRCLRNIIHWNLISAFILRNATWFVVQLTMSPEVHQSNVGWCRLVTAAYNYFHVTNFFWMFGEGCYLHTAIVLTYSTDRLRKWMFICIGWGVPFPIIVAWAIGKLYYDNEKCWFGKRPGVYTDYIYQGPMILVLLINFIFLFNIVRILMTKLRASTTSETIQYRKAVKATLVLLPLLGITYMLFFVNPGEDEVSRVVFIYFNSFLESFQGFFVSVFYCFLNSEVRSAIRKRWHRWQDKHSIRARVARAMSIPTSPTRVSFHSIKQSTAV
The experiment in a line: HTRF cAMP assay, determination of hCRHR1 potency (peptide libraries 5 conc., purified peptides 11 conc.). The format is cell-based. In a few lines: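 Cellular cAMP was read by time-resolved FRET between d2-labelled cAMP and cryptate anti-cAMP antibody. The cells were freshly thawed suspension CHO-K1 cells stably expressing human CRHR1.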

The mark [1] stands for this setting: library peptides, matched molecular pairs L vs Nle in position X^38, read-out: Potency hCRHR2 pEC50 (converted).
Where [2] appears, read: library peptides, matched molecular pairs L vs Nle in position X^38, read-out: Potency hCRHR1 pEC50 (converted).

As for `CC[C@H](C)[C@H](N)C(=O)N[C@H](C(=O)N[C@@H](CC(C)C)C(=O)N[C@@H](CO)C(=O)N[C@@H](CC(C)C)C(=O)N[C@@H](CC(=O)O)C(=O)N[C@H](C(=O)N1C[C@H](O)C[C@H]1C(=O)N[C@H](C(=O)NCC(=O)N[C@@H](CC(C)C)C(=O)N[C@@H](CC(C)C)C(=O)N[C@@H](CCC(N)=O)C(=O)N[C@H](C(=O)N[C@@H](CC(C)C)C(=O)N[C@@H](CC(C)C)C(=O)N[C@@H](CCC(=O)O)C(=O)N[C@@H](CCC(N)=O)C(=O)N[C@@H](C)C(=O)N[C@@H](CCCNC(=N)N)C(=O)N[C@@H](C)C(=O)N[C@@H](CCCNC(=N)N)C(=O)N[C@H](C(=O)N[C@@H](C)C(=O)N[C@@H](CCCNC(=N)N)C(=O)N[C@@H](CCC(=O)O)C(=O)N[C@@H](CCC(N)=O)C(=O)N[C@@H](C)C(=O)N[C@@H](CCCCNC(=O)COCCOCCNC(=O)COCCOCCNC(=O)CC[C@H](NC(=O)CC[C@H](NC(=O)CCCCCCCCCCCCCCCCCCC(=O)O)C(=O)O)C(=O)O)C(=O)N[C@H](C(=O)N[C@@H](CC(N)=O)C(=O)N[C@@H](C)C(=O)N[C@@H](CCC(=O)O)C(=O)N[C@H](C(=O)N[C@@H](CC(C)C)C(=O)N[C@@H](C)C(=O)N[C@@H](CCC(=O)O)C(=O)N[C@H](C(N)=O)C(C)C)[C@@H](C)CC)[C@@H](C)O)C(C)C)[C@@H](C)CC)[C@@H](C)CC)C(C)C)C(C)C` [compound 84] (H-IVLSLDV[Hyp]IGLLQILLEQARARVAREQAK([AEEA-AEEA-γGlu-γGlu-C20 diacid])TNAEILAEV-NH2), the EC50 at hCRHR2 (setting [1]) is 1 nM; on hCRHR1 (setting [2]), 25.1 nM.
`CCCC[C@H](NC(=O)[C@@H](NC(=O)[C@H](CCC(=O)O)NC(=O)[C@H](C)NC(=O)[C@H](CC(N)=O)NC(=O)[C@@H](NC(=O)[C@H](CCCCNC(=O)COCCOCCNC(=O)COCCOCCNC(=O)CC[C@H](NC(=O)CC[C@H](NC(=O)CCCCCCCCCCCCCCCCCCC(=O)O)C(=O)O)C(=O)O)NC(=O)[C@H](C)NC(=O)[C@H](CCC(=O)O)NC(=O)[C@H](CCC(=O)O)NC(=O)[C@H](CCCNC(=N)N)NC(=O)[C@H](C)NC(=O)[C@H](C)NC(=O)[C@H](CCCNC(=N)N)NC(=O)[C@H](C)NC(=O)[C@H](CCCNC(=N)N)NC(=O)[C@H](C)NC(=O)[C@H](CCC(N)=O)NC(=O)[C@H](CCC(=O)O)NC(=O)[C@H](CC(C)C)NC(=O)[C@H](CC(C)C)NC(=O)[C@@H](NC(=O)[C@H](CCC(N)=O)NC(=O)[C@H](CC(C)C)NC(=O)[C@H](CC(C)C)NC(=O)CNC(=O)[C@@H](NC(=O)[C@@H]1CCCN1C(=O)[C@@H](NC(=O)[C@H](CC(=O)O)NC(=O)[C@H](CC(C)C)NC(=O)[C@H](CO)NC(=O)[C@H](CC(C)C)NC(=O)[C@@H](NC(=O)[C@@H](N)[C@@H](C)CC)C(C)C)C(C)C)[C@@H](C)CC)[C@@H](C)CC)[C@@H](C)O)[C@@H](C)CC)C(=O)N[C@@H](C)C(=O)N[C@@H](CCC(=O)O)C(=O)N[C@H](C(N)=O)[C@@H](C)CC` [compound 75] (H-IVLSLDVPIGLLQILLEQARARAAREEAK([AEEA-AEEA-γGlu-γGlu-C20 diacid])TNAEI[Nle]AEI-NH2): the figures for the EC50 at hCRHR2 (setting [1]) and on hCRHR1 (setting [2]) were 0.794 nM and 158000 nM, respectively.
For the compound `CCCC[C@H](NC(=O)[C@@H](NC(=O)[C@H](CCC(=O)O)NC(=O)[C@H](C)NC(=O)[C@H](CC(N)=O)NC(=O)[C@@H](NC(=O)[C@H](CCCCNC(=O)COCCOCCNC(=O)COCCOCCNC(=O)CC[C@H](NC(=O)CC[C@H](NC(=O)CCCCCCCCCCCCCCCCCCC(=O)O)C(=O)O)C(=O)O)NC(=O)[C@H](C)NC(=O)[C@H](CCC(N)=O)NC(=O)[C@H](CCC(=O)O)NC(=O)[C@H](CCCNC(=N)N)NC(=O)[C@H](C)NC(=O)[C@H](C)NC(=O)[C@H](CCCNC(=N)N)NC(=O)[C@H](C)NC(=O)[C@H](CCCNC(=N)N)NC(=O)[C@H](C)NC(=O)[C@H](CCC(N)=O)NC(=O)[C@H](CO)NC(=O)[C@H](CC(C)C)NC(=O)[C@H](CC(C)C)NC(=O)[C@@H](NC(=O)[C@H](CCC(N)=O)NC(=O)[C@H](CC(C)C)NC(=O)[C@H](CC(C)C)NC(=O)CNC(=O)[C@@H](NC(=O)[C@@H]1CCCN1C(=O)[C@@H](NC(=O)[C@H](CC(=O)O)NC(=O)[C@H](CC(C)C)NC(=O)[C@H](CO)NC(=O)[C@H](CC(C)C)NC(=O)[C@@H](NC(=O)[C@@H](N)[C@@H](C)CC)C(C)C)C(C)C)[C@@H](C)CC)[C@@H](C)CC)[C@@H](C)O)[C@@H](C)CC)C(=O)N[C@@H](C)C(=O)N[C@@H](CCC(=O)O)C(=O)N[C@H](C(N)=O)[C@@H](C)CC` [compound 89] (H-IVLSLDVPIGLLQILLSQARARAAREQAK([AEEA-AEEA-γGlu-γGlu-C20 diacid])TNAEI[Nle]AEI-NH2), on hCRHR2 (Table 5), the “Selectivity ratio (hCRHR1/ hCRHR2)” value is over 9091. In addition, the EC50 is 0.55 nM at hCRHR2 (Table 5, purified peptides, read-out: hCRHR2 EC50); 0.398 nM at hCRHR2 (setting [1]); over 5000 nM on hCRHR1 (Table 5, purified peptides, read-out: hCRHR1 EC50); 398000 nM on hCRHR1 (setting [2]).
In the case of `CCCC[C@H](NC(=O)[C@@H](NC(=O)[C@H](CCC(=O)O)NC(=O)C(C)(C)NC(=O)[C@H](CC(N)=O)NC(=O)[C@@H](NC(=O)[C@H](CCCCNC(=O)COCCOCCNC(=O)COCCOCCNC(=O)CC[C@H](NC(=O)CC[C@H](NC(=O)CCCCCCCCCCCCCCCCCCC(=O)O)C(=O)O)C(=O)O)NC(=O)[C@H](C)NC(=O)[C@H](CCC(N)=O)NC(=O)[C@H](CCC(=O)O)NC(=O)[C@H](CCCNC(=N)N)NC(=O)[C@H](C)NC(=O)[C@H](C)NC(=O)[C@H](CCCNC(=N)N)NC(=O)[C@H](C)NC(=O)[C@H](CCCNC(=N)N)NC(=O)[C@H](C)NC(=O)[C@H](CCC(N)=O)NC(=O)CNC(=O)[C@H](CC(C)C)NC(=O)[C@H](CC(C)C)NC(=O)[C@@H](NC(=O)[C@H](CCC(N)=O)NC(=O)[C@H](CC(C)C)NC(=O)[C@H](CC(C)C)NC(=O)CNC(=O)[C@@H](NC(=O)[C@@H]1CCCN1C(=O)[C@@H](NC(=O)[C@H](CC(=O)O)NC(=O)[C@H](CC(C)C)NC(=O)[C@H](CO)NC(=O)[C@H](CC(C)C)NC(=O)[C@@H](NC(=O)[C@@H](NC)[C@@H](C)CC)C(C)C)C(C)C)[C@@H](C)CC)[C@@H](C)CC)[C@@H](C)O)[C@@H](C)CC)C(=O)N[C@@H](C)C(=O)N[C@@H](CCC(=O)O)C(=O)N[C@H](C(N)=O)C(C)C` [compound 204] (H-[NMeI]VLSLDVPIGLLQILLGQARARAAREQAK([AEEA-AEEA-γGlu-γGlu-C20 diacid])TN[Aib]EI[Nle]AEV-NH2), the EC50 at hCRHR2 (Table 4, library peptides having X^38 = Nle, read-out: hCRHR2 pEC50 (converted)) is 0.0251 nM; on hCRHR1 (Table 4, library peptides having X^38 = Nle, read-out: hCRHR1 pEC50 (converted)), 1000 nM.
